# Experimental data taken from article PMC10689823, “Discovery of a Drug-like, Natural Product-Inspired DCAF11 Ligand Chemotype” (Nature Communications, 2023).
# Several values for one entry are separate records, joined by “and”; a condition that tells them apart may be missing. Identical values can stand only once.
# Key:
# Assay type in all cases: binding
# DCAF11 [1] = molecular target: T1, DCAF11 (Homo sapiens, UniProt Q8TEB1); assay: Affinity-based enrichment (biotin-streptavidin pulldown) in Hep G2 cells overexpressing HA-DCAF11; design: host or cells: Hep G2; details: Hep G2 cells overexpressing HA-DCAF11; 10 μM probe, 2 h
# Protocol: Hep G2 cells (1 × 10^6 cells/well) were seeded in 6-well plates and incubated for 24 h. On the next day, the cells were transfected with 1 µg pCMV3-N-HA-DCAF11 plasmid (Sino Biological, HG16257-NY) or 1 µg empty vector (pcDNA3.1(+), Thermo Fisher, V79020) and 2.5 µL FuGENE® HD transfection reagent (Promega, E2311) per well. The cells were incubated for 48 h prior to treatment with 100 μM compound 2 for 1 h. […] The cells were washed with ice-cold PBS, then lysed in lysis buffer (150 mM sodium chloride, 1% NP-40, 50 mM TRIS-HCl, pH 8.0 with complete protease inhibitor cocktail (Roche, 11836170001)) for 30 min on ice. After centrifugation at 16,000 x g, the supernatant was transferred into a new tube and the protein concentration was determined using the DC protein assay (BIO-RAD, 5000116).
# The supernatant was discarded and 1 mg of lysate in 500 µL lysis buffer was added to the beads and incubated for 1 h at room temperature with overhead rotation. The beads were washed twice with 500 µL washing buffer (50 mM PIPES (pH 7.4), 50 mM NaCl, 75 mM MgCl2, 5 mM EGTA, 0.1% NP-40, 0.1% Triton X-100, 0.1% Tween20) and twice with PBS for 10 min each at room temperature with overhead rotation. Enriched proteins were eluted by boiling of the beads at 95 °C for 5 min in 20 µL of a supersaturated (25 mM) biotin solution and visualized by Western Blotting as described above.
# DCAF11 [2] = molecular target: T1, DCAF11; assay: In-gel fluorescence labelling of purified DCAF11; details: 40 min; in-gel fluorescence
# Protocol: Purified DCAF11 protein (1 μg, Origene, TP760719) was diluted in PBS buffer that is mixed with compound 2 or BODIPY derivative 18 at the indicated concentration at room temperature. Samples were diluted with 5 × SDS sample loading buffer and heated at 95 °C for 5 min. Proteins were separated using SDS-PAGE and were visualized using the ChemiDoc MP Imaging System (BIO-RAD) at 488 nm and the results were analyzed by Image Lab (BIORAD).
# LC3B [3] = molecular target: T2, LC3B (Homo sapiens, UniProt Q9GZQ8); assay: Fluorescence polarization with LC3B protein; design: His (N); made in house; host or cells: E. coli BL21DE3 RIL; details: for Fluorescence Polarization (mP): probe 18 at 100 µM
# Protocol: The LC3B open reading frame was cloned into pOPINE-NHis by the Dortmund protein Facility (DPF). pOPINE-NHis-LC3B was transformed into BL21DE3 RIL K+. Cells were cultured in TB medium supplemented with ampicillin and chloramphenicol (Amp/Cam), 1% glucose and 2 mM MgSO4. A 10 L culture was incubated in TB/Amp with 0.01 % lactose monohydrate, 2 mM MgSO4 for 4 h at 37 °C followed by overnight incubation at 20 °C. Cells were lysed using sonication in a buffer containing 50 mM HEPES (pH 7.5), 300 mM NaCl, 10 mM imidazole, 1 mM 2-mercaptoethanol, 1 mM PMSF and DNase. Upon centrifugation, the supernatant was applied onto Ni NTA column. The column was washed using 50 mM HEPES (pH 7.5), 300 mM NaCl, 30 mM imidazole, 1 mM 2-mercaptoethanol. The protein was eluted in 50 mM HEPES pH 7.5, 300 mM NaCl, 300 mM imidazole, 1 mM 2-mercaptoethanol prior to size exclusion chromatography using 26/60 G75 column and 25 mM HEPES pH 7.5, 150 mM NaCl and1 mM DTE.
# The assay was performed in black, 384 well plates with a total volume of 20 µl per well using a buffer solution comprising 50 mM Tris, 300 mM NaCl and 1 mM 2-mercaptoethanol, pH 7.5. The BODIPY labelled compound 18 was tested at a final concentration of 100 µM, and the LC3B protein was titrated in two-fold dilution series. The plates were incubated at 20°C for 30 min, and fluorescence polarization was measured using a Tecan Spark plate reader at ex/em 502 / 511 nm.
# LC3B [4] = molecular target: T2, LC3B; assay: Thermal shift assay with LC3B; details: 15 µM LC3B; 60 µM compound; Glo-Melt dye
# Protocol: For thermal shift analysis, 15 µM of human LC3B was dispensed into 384-well plates (Hard-Shell 384-well 480 PCR plates, BioRAD #HSR4805) in buffer (50 mM Tris/HCl pH 7.4, 100 mM NaCl, 1 mM GSH and 0.02% CHAPS) with a Certus Flex liquid dispenser (Gyger). 60 µM compounds in DMSO (n4 or DMSO (0.6%) as control were added with an Echo 520 acoustic liquid handler (Labcyte). Glo-Melt dye was added (final concentration: 1/100), plates sealed with Lightcycler 480 Sealing Foils (Roche, #04 729 757 001) and mixed by short centrifugation (1 min, 60 g and room temeprature). A Lightcycler 480 II (Roche) was used for thermal shift curves with a temperature gradient from 20 to 95 °C according to the manufacturer´s protocol. Protein melting curves were analyzed, and the difference in meting temperature (ΔTm) was calculated with LightCycler Thermal Shift Analysis software (ROCHE) and visualized by Graphpad Prism (Version 9.5.1).
# T1 sequence (Q8TEB1 whole entry): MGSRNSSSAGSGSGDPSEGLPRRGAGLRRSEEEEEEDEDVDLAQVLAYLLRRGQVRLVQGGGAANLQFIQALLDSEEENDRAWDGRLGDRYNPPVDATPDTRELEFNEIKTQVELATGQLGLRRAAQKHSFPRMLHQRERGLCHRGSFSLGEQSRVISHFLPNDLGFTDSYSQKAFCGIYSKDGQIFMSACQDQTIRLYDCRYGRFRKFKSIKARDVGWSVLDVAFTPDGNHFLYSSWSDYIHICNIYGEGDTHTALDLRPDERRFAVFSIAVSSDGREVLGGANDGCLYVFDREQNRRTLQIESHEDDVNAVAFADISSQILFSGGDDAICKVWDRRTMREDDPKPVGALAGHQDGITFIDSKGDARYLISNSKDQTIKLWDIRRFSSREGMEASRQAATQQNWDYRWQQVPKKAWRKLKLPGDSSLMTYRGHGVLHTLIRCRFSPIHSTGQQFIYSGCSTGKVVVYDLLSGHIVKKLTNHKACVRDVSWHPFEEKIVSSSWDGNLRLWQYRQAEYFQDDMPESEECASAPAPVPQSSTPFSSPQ
molecule,measurement,setting,value
O=C(CCCCC1SC[C@@H]2NC(=O)N[C@H]12)NCCOc1c(Br)cc(/C=C2\C(=O)Nc3ccc(Br)cc32)cc1Br (stereo partly shown) [Compound 14],enrichment of DCAF11 by pulldown,DCAF11 [1],enriched DCAF11 protein
Cc1cc(C)n2c1C=C1C=CC(CCC(=O)NCCOCCOCCOCCOc3c(Br)cc(C=C4C(=O)Nc5ccc(Br)cc54)cc3Br)=[N+]1[B-]2(F)F [Compound 18],binding (fluorescence labelling) to purified DCAF11,DCAF11 [2],binds to purified DCAF11 in a concentration-dependent manner
same,binding to LC3B in fluorescence polarization,"LC3B [3]; 18 at 100 µM, LC3B titrated",failed to bind
same,Fluorescence Polarization (mP),LC3B [3]; LC3B protein concentration 0.00610352 µM,132 mP and 130 mP and 100 mP and 97 mP
same,Fluorescence Polarization (mP),LC3B [3]; LC3B protein concentration 0.012207 µM,127 mP and 128 mP and 102 mP and 96 mP
same,Fluorescence Polarization (mP),LC3B [3]; LC3B protein concentration 0.0244141 µM,129 mP and 121 mP and 108 mP and 110 mP
same,Fluorescence Polarization (mP),LC3B [3]; LC3B protein concentration 0.0488281 µM,132 mP and 133 mP and 107 mP and 105 mP
same,Fluorescence Polarization (mP),LC3B [3]; LC3B protein concentration 0.0976562 µM,127 mP and 130 mP and 115 mP and 111 mP
same,Fluorescence Polarization (mP),LC3B [3]; LC3B protein concentration 0.195312 µM,131 mP and 136 mP and 106 mP and 103 mP
same,Fluorescence Polarization (mP),LC3B [3]; LC3B protein concentration 0.390625 µM,133 mP and 127 mP and 116 mP and 109 mP
same,Fluorescence Polarization (mP),LC3B [3]; LC3B protein concentration 0.78125 µM,135 mP and 112 mP and 108 mP
same,Fluorescence Polarization (mP),LC3B [3]; LC3B protein concentration 1.5625 µM,138 mP and 134 mP and 112 mP and 113 mP
same,Fluorescence Polarization (mP),LC3B [3]; LC3B protein concentration 3.125 µM,132 mP and 138 mP and 112 mP and 108 mP
same,Fluorescence Polarization (mP),LC3B [3]; LC3B protein concentration 6.25 µM,132 mP and 131 mP and 113 mP and 111 mP
same,Fluorescence Polarization (mP),LC3B [3]; LC3B protein concentration 12.5 µM,108 mP and 101 mP and 138 mP and 135 mP
same,Fluorescence Polarization (mP),LC3B [3]; LC3B protein concentration 25 µM,110 mP and 132 mP and 130 mP
same,Fluorescence Polarization (mP),LC3B [3]; LC3B protein concentration 50 µM,107 mP and 101 mP and 132 mP and 133 mP
same,Fluorescence Polarization (mP),LC3B [3]; LC3B protein concentration 100 µM,102 mP and 138 mP and 134 mP
DC-LC3in-D5 [reference compound],change of melting temperature of LC3B (ΔTm),LC3B [4],13 °C
